Experimental data published in PubChem BioAssay (NCI).
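At the GI50, growth is halved. TGI denotes the concentration required for complete inhibition of growth.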

Tests used:
Assay in all cases: inhibition of tumour cell growth, NCI panel, 384-well format
SR leukemia = test system: SR leukemia
A498 renal = test system: A498 renal
EKVX NSCLC = test system: EKVX NSCLC
OVCAR-3 ovarian = test system: OVCAR-3 ovarian
HOP-62 NSCLC = test system: HOP-62 NSCLC
DU-145 prostate = test system: DU-145 prostate
SK-MEL-2 melanoma = test system: SK-MEL-2 melanoma
PC-3 prostate = test system: PC-3 prostate
U251 glioblastoma = test system: U251 glioblastoma
SN12C renal = test system: SN12C renal
SW-620 colon = test system: SW-620 colon
MDA-MB-231 breast = test system: MDA-MB-231 breast
SF-268 CNS = test system: SF-268 CNS
SNB-19 CNS = test system: SNB-19 CNS
MALME-3M melanoma = test system: MALME-3M melanoma
OVCAR-5 ovarian = test system: OVCAR-5 ovarian
CCRF-CEM leukemia = test system: CCRF-CEM leukemia
HL-60(TB) leukemia = test system: HL-60(TB) leukemia
MCF7 breast = test system: MCF7 breast
HT29 colon = test system: HT29 colon
BT-549 breast = test system: BT-549 breast
NCI-H460 NSCLC = test system: NCI-H460 NSCLC
MOLT-4 leukemia = test system: MOLT-4 leukemia
ACHN renal = test system: ACHN renal
UACC-257 melanoma = test system: UACC-257 melanoma
T-47D breast = test system: T-47D breast
SK-MEL-28 melanoma = test system: SK-MEL-28 melanoma
TK-10 renal = test system: TK-10 renal
HS 578T breast = test system: HS 578T breast
UACC-62 melanoma = test system: UACC-62 melanoma
SK-MEL-5 melanoma = test system: SK-MEL-5 melanoma
786-0 renal = test system: 786-0 renal
OVCAR-8 ovarian = test system: OVCAR-8 ovarian
SNB-75 CNS = test system: SNB-75 CNS
KM12 colon = test system: KM12 colon
OVCAR-4 ovarian = test system: OVCAR-4 ovarian
IGROV1 ovarian = test system: IGROV1 ovarian
COLO 205 colon = test system: COLO 205 colon
CAKI-1 renal = test system: CAKI-1 renal
NCI/ADR-RES ovarian = test system: NCI/ADR-RES ovarian
NCI-H23 lung = test system: NCI-H23 lung
RXF 393 renal = test system: RXF 393 renal
SF-539 CNS = test system: SF-539 CNS
MDA-MB-435 melanoma = test system: MDA-MB-435 melanoma
HCC-2998 colon = test system: HCC-2998 colon
HOP-92 NSCLC = test system: HOP-92 NSCLC
SF-295 CNS = test system: SF-295 CNS
NCI-H522 lung = test system: NCI-H522 lung
MDA-MB-468 breast = test system: MDA-MB-468 breast
SK-OV-3 ovarian = test system: SK-OV-3 ovarian
HCT-15 colon = test system: HCT-15 colon
NCI-H226 lung = test system: NCI-H226 lung
A549 NSCLC = test system: A549 NSCLC
NCI-H322M lung = test system: NCI-H322M lung
RPMI-8226 leukemia = test system: RPMI-8226 leukemia
M14 melanoma = test system: M14 melanoma

Compound `NCC(=O)CCC(=O)O` has a GI50 (SR leukemia) greater than 100 µM, a TGI (SR leukemia) greater than 100 µM and a GI50 (A498 renal) greater than 100 µM. For the same compound, the TGI (A498 renal) was greater than 100 µM, the GI50 (EKVX NSCLC) was greater than 100 µM and the TGI (EKVX NSCLC) was greater than 100 µM. For the same compound, the GI50 (OVCAR-3 ovarian) was greater than 100 µM, the TGI (OVCAR-3 ovarian) was greater than 100 µM and the GI50 (HOP-62 NSCLC) was greater than 100 µM. The TGI (HOP-62 NSCLC) was greater than 100 µM, the GI50 (DU-145 prostate) was greater than 100 µM and the TGI (DU-145 prostate) was greater than 100 µM. It also gave a GI50 (SK-MEL-2 melanoma) greater than 100 µM, a TGI (SK-MEL-2 melanoma) greater than 100 µM and a GI50 (PC-3 prostate) greater than 100 µM. It also gave a TGI (PC-3 prostate) greater than 100 µM, a GI50 (U251 glioblastoma) greater than 100 µM and a TGI (U251 glioblastoma) greater than 100 µM. For the same compound, the GI50 (SN12C renal) was greater than 100 µM, the TGI (SN12C renal) was greater than 100 µM and the GI50 (SW-620 colon) was greater than 100 µM. It also gave a TGI (SW-620 colon) greater than 100 µM, a GI50 (MDA-MB-231 breast) greater than 100 µM and a TGI (MDA-MB-231 breast) greater than 100 µM. The GI50 (SF-268 CNS) was greater than 100 µM, the TGI (SF-268 CNS) was greater than 100 µM and the GI50 (SNB-19 CNS) was greater than 100 µM. It also gave a TGI (SNB-19 CNS) greater than 100 µM, a GI50 (MALME-3M melanoma) greater than 100 µM and a TGI (MALME-3M melanoma) greater than 100 µM. For the same compound, the GI50 (OVCAR-5 ovarian) was greater than 100 µM, the TGI (OVCAR-5 ovarian) was greater than 100 µM and the GI50 (CCRF-CEM leukemia) was 62.4 µM. The TGI (CCRF-CEM leukemia) was greater than 100 µM, the GI50 (HL-60(TB) leukemia) was greater than 100 µM and the TGI (HL-60(TB) leukemia) was greater than 100 µM. For the same compound, the GI50 (MCF7 breast) was greater than 100 µM, the TGI (MCF7 breast) was greater than 100 µM and the GI50 (HT29 colon) was greater than 100 µM. The TGI (HT29 colon) was greater than 100 µM, the GI50 (BT-549 breast) was greater than 100 µM and the TGI (BT-549 breast) was greater than 100 µM. It also gave a GI50 (NCI-H460 NSCLC) greater than 100 µM, a TGI (NCI-H460 NSCLC) greater than 100 µM and a GI50 (MOLT-4 leukemia) of 73.2 µM. For the same compound, the TGI (MOLT-4 leukemia) was greater than 100 µM, the GI50 (ACHN renal) was greater than 100 µM and the TGI (ACHN renal) was greater than 100 µM. For the same compound, the GI50 (UACC-257 melanoma) was greater than 100 µM, the TGI (UACC-257 melanoma) was greater than 100 µM and the GI50 (T-47D breast) was greater than 100 µM. It also gave a TGI (T-47D breast) greater than 100 µM, a GI50 (SK-MEL-28 melanoma) greater than 100 µM and a TGI (SK-MEL-28 melanoma) greater than 100 µM. It also gave a GI50 (TK-10 renal) greater than 100 µM, a TGI (TK-10 renal) greater than 100 µM and a GI50 (HS 578T breast) greater than 100 µM. For the same compound, the TGI (HS 578T breast) was greater than 100 µM, the GI50 (UACC-62 melanoma) was greater than 100 µM and the TGI (UACC-62 melanoma) was greater than 100 µM. The GI50 (SK-MEL-5 melanoma) was greater than 100 µM, the TGI (SK-MEL-5 melanoma) was greater than 100 µM and the GI50 (786-0 renal) was greater than 100 µM. The TGI (786-0 renal) was greater than 100 µM, the GI50 (OVCAR-8 ovarian) was greater than 100 µM and the TGI (OVCAR-8 ovarian) was greater than 100 µM. The GI50 (SNB-75 CNS) was greater than 100 µM, the TGI (SNB-75 CNS) was greater than 100 µM and the GI50 (KM12 colon) was greater than 100 µM. The TGI (KM12 colon) was greater than 100 µM, the GI50 (OVCAR-4 ovarian) was 62.9 µM and the TGI (OVCAR-4 ovarian) was greater than 100 µM. For the same compound, the GI50 (IGROV1 ovarian) was greater than 100 µM, the TGI (IGROV1 ovarian) was greater than 100 µM and the GI50 (COLO 205 colon) was greater than 100 µM. The TGI (COLO 205 colon) was greater than 100 µM, the GI50 (CAKI-1 renal) was greater than 100 µM and the TGI (CAKI-1 renal) was greater than 100 µM. It also gave a GI50 (NCI/ADR-RES ovarian) greater than 100 µM, a TGI (NCI/ADR-RES ovarian) greater than 100 µM and a GI50 (NCI-H23 lung) greater than 100 µM. For the same compound, the TGI (NCI-H23 lung) was greater than 100 µM, the GI50 (RXF 393 renal) was greater than 100 µM and the TGI (RXF 393 renal) was greater than 100 µM. For the same compound, the GI50 (SF-539 CNS) was greater than 100 µM, the TGI (SF-539 CNS) was greater than 100 µM and the GI50 (MDA-MB-435 melanoma) was greater than 100 µM. It also gave a TGI (MDA-MB-435 melanoma) greater than 100 µM, a GI50 (HCC-2998 colon) greater than 100 µM and a TGI (HCC-2998 colon) greater than 100 µM. It also gave a GI50 (HOP-92 NSCLC) greater than 100 µM, a TGI (HOP-92 NSCLC) greater than 100 µM and a GI50 (SF-295 CNS) greater than 100 µM. For the same compound, the TGI (SF-295 CNS) was greater than 100 µM, the GI50 (NCI-H522 lung) was greater than 100 µM and the TGI (NCI-H522 lung) was greater than 100 µM. It also gave a GI50 (MDA-MB-468 breast) of 26.7 µM, a TGI (MDA-MB-468 breast) of 74.7 µM and a GI50 (SK-OV-3 ovarian) of 45.2 µM. The TGI (SK-OV-3 ovarian) was greater than 100 µM, the GI50 (HCT-15 colon) was greater than 100 µM and the TGI (HCT-15 colon) was greater than 100 µM. The GI50 (NCI-H226 lung) was greater than 100 µM, the TGI (NCI-H226 lung) was greater than 100 µM and the GI50 (A549 NSCLC) was greater than 100 µM. It also gave a TGI (A549 NSCLC) greater than 100 µM, a GI50 (NCI-H322M lung) greater than 100 µM and a TGI (NCI-H322M lung) greater than 100 µM. The GI50 (RPMI-8226 leukemia) was greater than 100 µM, the TGI (RPMI-8226 leukemia) was greater than 100 µM and the GI50 (M14 melanoma) was greater than 100 µM. For the same compound, the TGI (M14 melanoma) was greater than 100 µM.
